According to patent publication US8133849B2, “Herbicidal compounds” (Syngenta Limited, priority 2007, dated 2012):

Key:
Assay in all cases: Example B2 herbicidal action, post-emergence, pots in glasshouse, damage score 0-10
Type in all cases: in vivo
Conditions in all cases: application post-emergence, rate 1000 g/ha, evaluated after 13 days
Echinochloa crus-galli = tested on: Echinochloa crus-galli
How it was run: (§1)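 Pot-grown plants were sprayed post-emergence at 8 days with active ingredient in aqueous spray derived from acetone/water (50:50) containing 0.5% Tween 20. Glasshouse conditions were 24/16° C day/night, 14 h light and 65% humidity, with watering twice daily. Damage was scored 13 days after spraying.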

Setaria faberi = tested on: Setaria faberi
How it was run: as §1

Solanum nigrum = tested on: Solanum nigrum
How it was run: as §1

Amaranthus retroflexus = tested on: Amaranthus retroflexus
How it was run: as §1

Ipomea hederaceae = tested on: Ipomea hederaceae
How it was run: as §1

Row | SMILES | ECHCG damage score (10=total damage to plant; 0=no damage to plant) (Echinochloa crus-galli) | SETFA damage score (10=total damage to plant; 0=no damage to plant) (Setaria faberi) | SOLNI damage score (10=total damage to plant; 0=no damage to plant) (Solanum nigrum) | AMARE damage score (10=total damage to plant; 0=no damage to plant) (Amaranthus retroflexus) | IPOHE damage score (10=total damage to plant; 0=no damage to plant) (Ipomea hederaceae)
1 | CCSC(=O)OC1=C(c2c(F)ccc(Br)c2Cl)S(=O)(=O)N(CC(F)F)c2nccnc21 [Compound C107] | 5 | 3 | 7 | 5 | 6
2 | CCN1c2nccnc2C(OC(=O)C(C)(C)C)=C(c2cc(Cl)ccc2C(F)(F)F)S1(=O)=O [Compound C108] | 3 | 2 | 7 | 4 | 3
3 | CCSC(=O)OC1=C(c2cc(Cl)ccc2C(F)(F)F)S(=O)(=O)N(CC)c2nccnc21 [Compound C109] | 5 | 2 | 8 | 5 | 9
4 | CCN1c2nccnc2C(OC(=O)C(C)C)=C(c2cc(Cl)ccc2C(F)(F)F)S1(=O)=O [Compound C110] | 5 | 4 | 8 | 9 | 8
5 | CC(C)(C)C(=O)OC1=C(c2cc(Cl)ccc2C(F)(F)F)S(=O)(=O)N(CC(F)F)c2nccnc21 [Compound C111] | 6 | 6 | 9 | 8 | 9
6 | CCSC(=O)OC1=C(c2cc(Cl)ccc2C(F)(F)F)S(=O)(=O)N(CC(F)F)c2nccnc21 [Compound C112] | 6 | 6 | 10 | 10 | 9
7 | CC(C)C(=O)OC1=C(c2cc(Cl)ccc2C(F)(F)F)S(=O)(=O)N(CC(F)F)c2nccnc21 [Compound C113] | 7 | 6 | 10 | 8 | 9
8 | CC(C)C(=O)OC1=C(c2cc(C(F)(F)F)ccc2Cl)S(=O)(=O)N(CC(Cl)Cl)c2nccnc21 [Compound C115] | 1 | 5 | 9 | 8 | 6
9 | CC(C)C(=O)OC1=C(c2ccc(Cl)cc2Cl)S(=O)(=O)N(CC(Cl)Cl)c2nccnc21 [Compound C116] | 2 | 3 | 10 | 10 | 6
10 | CC(C)C(=O)OC1=C(c2ccccc2I)S(=O)(=O)N(CC(F)F)c2nccnc21 [Compound C117] | 8 | 7 | 10 | 10 | 9
11 | C=CCN1c2nccnc2C(OC(=O)C(C)(C)C)=C(c2cc(Cl)ccc2C(F)(F)F)S1(=O)=O [Compound C118] | 5 | 4 | 8 | 6 | 4
12 | C=CCN1c2nccnc2C(OC(=O)SCC)=C(c2cc(Cl)ccc2C(F)(F)F)S1(=O)=O [Compound C119] | 5 | 3 | 6 | 3 | 3
13 | CCOC(=O)OC1=C(c2cc(Cl)ccc2C(F)(F)F)S(=O)(=O)N(CC(F)F)c2nccnc21 [Compound C120] | 8 | 9 | 9 | 9 | 10
14 | CC(C)C(=O)OC1=C(c2ccccc2C(F)(F)F)S(=O)(=O)N(CCCl)c2nccnc21 [Compound C121] | 0 | 2 | 5 | 0 | 1
15 | CC(C)C(=O)OC1=C(c2ccc(Cl)cc2Cl)S(=O)(=O)N(CC(F)(F)C(F)F)c2nccnc21 [Compound C122] | 2 | 3 | 9 | 5 | 6
16 | CC(C)C(=O)OC1=C(c2cc(C(F)(F)F)ccc2Cl)S(=O)(=O)N(CCCl)c2nccnc21 [Compound C123] | 2 | 1 | 10 | 4 | 4
17 | CCOC(=O)OC1=C(c2cc(Cl)cc(C(F)(F)F)c2)S(=O)(=O)N(CC(F)F)c2nccnc21 [Compound C124] | 0 | 0 | 2 | 10 | 2
18 | O=C(OC1=C(c2c(Cl)cccc2C(F)(F)F)S(=O)(=O)N(CC(F)F)c2nccnc21)Sc1ccccc1 [Compound C125] | 8 | 8 | 9 | 9 | 8
19 | O=C(OC1=C(c2c(Cl)ccc(Cl)c2Cl)S(=O)(=O)N(CC(F)F)c2nccnc21)Sc1ccccc1 [Compound C126] | 7 | 4 | 9 | 9 | 7
20 | CC(C)C(=O)OC1=C(c2ccc(C(F)(F)F)cc2C(F)(F)F)S(=O)(=O)N(CC(F)F)c2nccnc21 [Compound C127] | 4 | 2 | 10 | 8 | 8
21 | CC(C)C(=O)OC1=C(c2ccccc2C#N)S(=O)(=O)N(CC(F)F)c2nccnc21 [Compound C128] | 0 | 0 | 9 | 7 | 8
22 | CSC(=O)OC1=C(c2c(Cl)cccc2C(F)(F)F)S(=O)(=O)N(CC(F)F)c2nccnc21 [Compound C129] | 9 | 9 | 10 | 10 | 9
23 | CSC(=O)OC1=C(c2c(Cl)ccc(Cl)c2Cl)S(=O)(=O)N(CC(F)F)c2nccnc21 [Compound C130] | 8 | 7 | 10 | 10 | 10
24 | CSC(=O)OC1=C(c2ccc(C(F)(F)F)cc2C(F)(F)F)S(=O)(=O)N(CC(F)F)c2nccnc21 [Compound C131] | 4 | 2 | 10 | 9 | 9
25 | CC(C)C(=O)OC1=C(c2ccc(Br)cc2C(F)(F)F)S(=O)(=O)N(CC(F)F)c2nccnc21 [Compound C132] | 6 | 7 | 10 | 10 | 10
26 | CSC(=O)OC1=C(c2ccc(Br)cc2C(F)(F)F)S(=O)(=O)N(CC(F)F)c2nccnc21 [Compound C133] | 8 | 7 | 10 | 10 | 8
